# Paper PMC9065035, “Structural basis for the synthesis of the core 1 structure by C1GalT1” (Nature Communications, 2022)
# pKd: −log10 of the molar value. Values joined by “and” are separate entries in the source; they are usually repeats but may differ in a detail not shown here. Equal entries are not always repeated. Where two headings read alike, the source gives them in different places. Peptide text beside a SMILES is read from it. * marks the point of attachment. αGalNAc = CC(=O)N[C@@H]1[C@@H](O)[C@@H](O)[C@@H](CO)O[C@@H]1*
# Legend:
# [1] = molecular target: T1, DmC1GalT1^T43-Q388 (Drosophila melanogaster, UniProt Q7K237); test: UDP-Glo glycosylation kinetics of DmC1GalT1 T43-Q388; settings: for kcat app/Km app (catalytic efficiency): ± standard error
# [2] = molecular target: T1, DmC1GalT1^T43-Q388; test: Isothermal titration calorimetry (ITC); type: binding; parameters: made in house
# Procedure: ITC was used to characterize the interaction of DmC1GalT1^T43-Q388 with UDP, APDT*RP with and without UDP, APDTRP with UDP, and P4/P7 with and without UDP. All experiments were carried out in an Auto-iTC200 (Microcal, GE Healthcare) at 20 °C. The titration of DmC1GalT1^T43-Q388 with UDP was carried out at 100 μM of the enzyme with 800 μM UDP in 25 mM TRIS pH 7.5, 150 mM NaCl and 1 mM MnCl2. The titrations with APDT*RP and P4/P7 in the absence of UDP were carried out at 60 μM of the enzyme with 2 mM P4/P7 in 25 mM TRIS pH 7.5, 150 mM NaCl and 1 mM MnCl2. To determine the Kds for APDT*RP, APDTRP and P4/P7 under an excess of UDP, the experiments were made in 25 mM TRIS pH 7.5, 150 mM NaCl, 1 mM UDP and 1 mM MnCl2. The concentration of the enzyme was 60 μM for the titrations of APDT*RP and APDTRP and 50 μM for the titration with P4/P7. The concentration of the (glyco)peptides was 2 mM in all the ITC experiments. The experiments were performed in duplicate. Data integration, correction and analysis were carried out in Origin 7 (Microcal). The data were fit to a one-site equilibrium-binding model. Stoichiometry (n) of binding in all cases was ~1:1 except for UDP whose n = 0.4.
# [3] = molecular target: T1, DmC1GalT1^T43-Q388; test: STD NMR experiments; type: binding; parameters: made in house
# Procedure: STD NMR experiments were performed using a 1:35 molar ratio, defined by 20 μM DmC1GalT1^T43-Q388 and 710 μM ligands (α-O-methyl-GalNAc, and (glyco)peptides), and 25 mM Tris(D11)-DCl buffer, pD 7.5, with 150 mM NaCl and 150 µM MnCl2 in D2O. […] In the presence of 150 µM MnCl2, strong paramagnetic relaxation enhancements are observed for UDP, which prevents the observation of UDP proton signals in the NMR spectra. […] STD NMR spectra (stddiffesgp pulse sequence from Bruker pulse program library) were acquired with 1728 scans and 64 K data points, in a spectral window of 12335.53 Hz centered at 2818 Hz. Selective saturation (on resonance) was performed by irradiating at 7 and/or −0.5 ppm (depending if the ligand contains or not aromatic residues) using a series of 40 Eburp2.1000-shaped (from Bruker shaped pulses library) 90° pulses (50 ms) for a total saturation time of 2 s, and a relaxation delay of 4 s. For the reference spectrum (off resonance), the samples were irradiated at 100 ppm. Proper control experiments were performed for each ligand in the absence of protein and residual STD signals of the methyl groups of Ala/Thr were observed. […] Protein control experiments were also accomplished using DmC1GalT1^T43-Q388 in absence of a ligand and also subtracted from STD experiment. The STD spectrum (ISTD) was obtained by subtracting the on-resonance spectrum (Ion) to the off-resonance spectrum (Ioff). The % of STD (ISTD/Ioff × 100) was estimated by comparing the intensity of the signals in the STD spectrum (ISTD) with the signal intensities of the reference spectrum (Ioff). The STD amplification factor (STDAF) was also estimated by multiplying the % STD values by the ligand excess, which in the case of our experiments was 35 for every ligand. To determine the STD-derived epitope map the relative % of STD were calculated by setting to 100% the STD signal of the proton with the highest STD intensity and calculating the others accordingly (Supplementary Tables 2–4). Some protons were not able to be assessed with accuracy due to the use of water suppression or low signal/noise ratio and display a blue circle in the STD-derived epitope maps. Moreover, the resonances overlapped on the ^1H-NMR spectrum were considered in STD estimation and are labelled as *.
# [4] = acceptor varied, 500 µM UDP-Gal, 500 nM enzyme, pH 7.5, 30 min 37 °C, n = 2
# [5] = Kd, excess UDP (1 mM UDP, 1 mM MnCl2), 2 mM (glyco)peptide, 50–60 µM enzyme, 25 mM TRIS pH 7.5, 150 mM NaCl, 20 °C, one-site fit ± fit error, n = 2
# [6] = Kd, absence of UDP, 2 mM glycopeptide, 60 µM enzyme, 25 mM TRIS pH 7.5, 150 mM NaCl, 1 mM MnCl2, 20 °C, one-site fit ± fit error, n = 2
# [7] = UDP titration, 1 mM MnCl2, 20 °C
# T1 sequence (Q7K237 43-388): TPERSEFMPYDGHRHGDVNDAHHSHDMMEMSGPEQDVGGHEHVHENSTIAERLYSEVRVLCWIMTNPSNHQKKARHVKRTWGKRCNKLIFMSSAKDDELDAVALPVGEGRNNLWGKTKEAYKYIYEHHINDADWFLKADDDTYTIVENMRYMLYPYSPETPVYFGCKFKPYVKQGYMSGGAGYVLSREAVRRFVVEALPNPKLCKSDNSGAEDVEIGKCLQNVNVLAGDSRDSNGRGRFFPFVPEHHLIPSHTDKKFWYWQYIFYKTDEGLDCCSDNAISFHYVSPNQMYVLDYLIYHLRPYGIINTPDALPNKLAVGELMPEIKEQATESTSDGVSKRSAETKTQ
structure (smiles),measurement,setting,value
CC(=O)N[C@H]1[C@@H](O[C@H](C)[C@H](NC(=O)[C@H](CC(=O)O)NC(=O)[C@@H]2CCCN2C(=O)[C@H](C)N)C(=O)N[C@@H](CCCNC(=N)N)C(=O)N2CCC[C@H]2C(N)=O)O[C@H](CO)[C@H](O)[C@@H]1O [APDT*RP],kcat app/Km app (catalytic efficiency),[1]; [4],300 ± 67 M⁻¹ s⁻¹ and 301.5 M⁻¹ s⁻¹
same,pKd,[2]; [5],3.76
same,Kd,"[2]; absence of UDP, 2 mM glycopeptide, 60 µM enzyme, 25 mM TRIS pH 7.5, 150 mM NaCl, 1 mM MnCl2, 20 °C, one-site fit ± fit error, n = 2",Not measurable under our conditions
CC(=O)N[C@H]1[C@@H](O[C@H](C)[C@H](NC(=O)[C@H](C)NC(=O)[C@H](C)NC(=O)[C@@H]2CCCN2)C(=O)NCC(=O)N2CCC[C@H]2C(=O)N[C@@H](Cc2ccc(O)cc2)C(N)=O)O[C@H](CO)[C@H](O)[C@@H]1O [P4] (H-PAAT(αGalNAc)GPY-NH2),kcat app/Km app (catalytic efficiency),[1]; [4],1130 ± 100 M⁻¹ s⁻¹ and 1127 M⁻¹ s⁻¹
same,pKd,[2]; [6],4.39
CC(=O)N[C@H]1[C@@H](O[C@H](C)[C@H](NC(=O)[C@H](CC(=O)O)NC(=O)[C@H](C)NC(=O)[C@@H](N)Cc2ccc(O)cc2)C(=O)NCC(=O)N2CCC[C@H]2C(=O)N[C@@H](Cc2ccccc2)C(N)=O)O[C@H](CO)[C@H](O)[C@@H]1O [P7] (H-YADT(αGalNAc)GPF-NH2),kcat app/Km app (catalytic efficiency),[1]; [4],478.8 M⁻¹ s⁻¹
same,pKd,[2]; [6],4.43
same,pKd,[2]; [5],4.22
O=c1ccn([C@@H]2O[C@H](COP(=O)(O)OP(=O)(O)O)[C@@H](O)[C@H]2O)c(=O)[nH]1 [UDP],pKd,[2],4.74
same,"binding, fold stronger than binding of APDT*RP","[2]; ITC, relative to APDT*RP",~ 9.5 fold
same,n (stoichiometry of binding),[2]; [7],0.4
same,ΔH,[2]; [7],-4.264 ± 0.471 kcal/mol
CO[C@H]1O[C@H](CO)[C@H](O)[C@H](O)[C@H]1NC(C)=O [α-O-methyl-GalNAc],activity as acceptor substrate,[1]; 500 µM UDP-Gal,kinetic parameters could not be determined
same,Vmax app,"[1]; acceptor varied, 500 µM UDP-Gal, 500 nM enzyme, pH 7.5, 30 min 37 °C, Michaelis–Menten fit ± standard error, n = 2",548.9 nmol/min/mg
same,initial activity relative to that achieved with APDT*RP,[1]; at a saturating concentration of the glycopeptides (~500 µM),half
same,Km,"[1]; read-out: Km app, acceptor substrate varied (P1–P7 12.5–500 µM; APDT*RP/APDS*RP 12.5–1000 µM; α-O-methyl-GalNAc up to 2 mM), 500 µM UDP-Gal, 500 nM enzyme, 25 mM Tris pH 7.5, 150 mM NaCl, 50 µM MnCl2, 1 mg/ml BSA, 30 min 37 °C, Michaelis–Menten fit ± standard error, n = 2",10.3 mM
same,saturation of the enzyme,[1]; up to 2 mM substrate,did not reach saturation up to 2 mM
same,"STDAF, CH3 (NHAc) GalNAc",[3]; on resonance 7 ppm,20.0
same,"STDAF, H2 GalNAc",[3]; on resonance 7 ppm,45.0
same,"STDAF, H3 GalNAc",[3]; on resonance 7 ppm,24.9
same,"STDAF, H4 GalNAc",[3]; on resonance 7 ppm,27.9
same,"STDAF, H5-GalNAc",[3]; on resonance 7 ppm,25.8
same,"STDAF, H6-GalNAc",[3]; on resonance 7 ppm,29.5
same,"STDAF, OMe",[3]; on resonance 7 ppm,16.6
same,"relative % STD, CH3 (NHAc) GalNAc",[3]; on resonance 7 ppm,44%
same,"relative % STD, H3 GalNAc",[3]; on resonance 7 ppm,55%
same,"relative % STD, H4 GalNAc",[3]; on resonance 7 ppm,62%
same,"relative % STD, H5-GalNAc",[3]; on resonance 7 ppm,57%
same,"relative % STD, H6-GalNAc",[3]; on resonance 7 ppm,66%
same,"relative % STD, OMe",[3]; on resonance 7 ppm,37%
same,"STDAF, CH3 (NHAc) GalNAc",[3]; on resonance -0.5 ppm,18.9
same,"STDAF, H3 GalNAc",[3]; on resonance -0.5 ppm,20.0
same,"STDAF, H4 GalNAc",[3]; on resonance -0.5 ppm,28.7
same,"STDAF, H6-GalNAc",[3]; on resonance -0.5 ppm,23.6
same,"STDAF, OMe",[3]; on resonance -0.5 ppm,17.6
same,"relative % STD, CH3 (NHAc) GalNAc",[3]; on resonance -0.5 ppm,61%
same,"relative % STD, H3 GalNAc",[3]; on resonance -0.5 ppm,65%
same,"relative % STD, H4 GalNAc",[3]; on resonance -0.5 ppm,93%
same,"relative % STD, H6-GalNAc",[3]; on resonance -0.5 ppm,77%
same,"relative % STD, OMe",[3]; on resonance -0.5 ppm,57%
same,"STDAF, H2 GalNAc","[3]; on resonance -0.5 ppm, […] UDP, 150 µM MnCl2, 298 K",30.7
same,STD response,"[3]; presence of UDP ([…]) and 150 µM MnCl2, 20 µM enzyme, 710 µM ligand",clearly presented STD enhancements
